Laboratory results: patent US20260206751A1, “NOVEL BICYCLIC-CARBOXAMIDE COMPOUNDS USEFUL AS PESTICIDES” (SYNGENTA CROP PROTECTION AG, priority 2022, published 2026)

What was measured:
Format in all cases: in vivo
[1] = system: Myzus persicae (Green Peach Aphid); assay: Myzus persicae (green peach aphid) feeding/contact activity, sunflower leaf discs; settings: foliar, 144 h, application rate 200 ppm, sprayed sunflower leaf discs, aphid population of mixed ages, 6 days after infestation
Protocol: Example B4: Myzus persicae (Green Peach Aphid):Feeding/Contact Activity
(§1) Sunflower leaf discs were placed onto agar in a 24-well microtiter plate and sprayed with aqueous test solutions prepared from 10,000 ppm DMSO stock solutions. After drying, the leaf discs were infested with an aphid population of mixed ages. The samples were assessed for mortality 6 days after infestation.

[2] = system: Frankliniella occidentalis (Western Flower Thrips); assay: Frankliniella occidentalis (western flower thrips) feeding/contact activity; settings: foliar, 168 h, application rate 200 ppm, sprayed sunflower leaf discs, population of mixed ages, 7 days after infestation
Protocol: Example B3: Frankliniella occidentalis (Western Flower Thrips): Feeding/Contact Activity
Sunflower leaf discs were placed on agar in 24-well microtiter plates and sprayed with aqueous test solutions prepared from 10,000 DMSO stock solutions. After drying the leaf discs were infested with a Frankliniella population of mixed ages. The samples were assessed for mortality 7 days after infestation.

[3] = system: Plutella xylostella (Diamond Back Moth); assay: Plutella xylostella (diamond back moth) feeding/contact activity; settings: 192 h, application rate 200 ppm, artificial diet, Plutella eggs, 8 days after infestation, read-out: effect in at least one of the two categories (mortality or growth inhibition)
Protocol: Example B7: Plutella xylostella (Diamond Back Moth) Feeding/Contact Activity
24-well microtiter plates with artificial diet were treated with aqueous test solutions prepared from 10,000 ppm DMSO stock solutions by pipetting. After drying, Plutella eggs were pipetted through a plastic stencil onto a gel blotting paper and the plate was closed with it. The samples were assessed for mortality and growth inhibition in comparison to untreated samples 8 days after infestation.

[4] = system: Diabrotica balteata (Corn Root Worm); assay: Diabrotica balteata (corn root worm) feeding/contact activity; settings: 96 h, application rate 200 ppm, sprayed maize sprouts, L2 larvae, 4 days after infestation, read-out: effect in at least one of the two categories (mortality or growth inhibition)
Protocol: Example B1: Diabrotica balteata (Corn Root Worm) Feeding/Contact Activity
Maize sprouts placed onto an agar layer in 24-well microtiter plates were treated with aqueous test solutions prepared from 10,000 ppm DMSO stock solutions by spraying. After drying, the plates were infested with L2 larvae (6 to 10 per well). The samples were assessed for mortality and growth inhibition in comparison to untreated samples 4 days after infestation.

[5] = system: Myzus persicae (Green Peach Aphid); assay: Myzus persicae (green peach aphid) intrinsic activity; settings: 120 h, test rate 12 ppm, mixed with sucrose solution, Parafilm, infested pea seedlings, 5 days after infestation
Description: Example B5: Myzus persicae (Green Peach Aphid). Intrinsic Activity
Test compounds prepared from 10,000 ppm DMSO stock solutions were applied by pipette into 24-well microtiter plates and mixed with sucrose solution. The plates were closed with a stretched Parafilm. A plastic stencil with 24 holes was placed onto the plate and infested pea seedlings were placed directly on the Parafilm. The infested plate was closed with a gel blotting paper and another plastic stencil and then turned upside down. The samples were assessed for mortality 5 days after infestation.

[6] = system: Euschistus heros (Neotropical Brown Stink Bug); assay: Euschistus heros (neotropical brown stink bug) feeding/contact activity; settings: 120 h, application rate 200 ppm, sprayed soybean leaves, N2 nymphs, 5 days after infestation, read-out: effect in at least one of the two categories (mortality or growth inhibition)
Protocol: Example B2: Euschistus heros (Neotropical Brown Stink Bug) Feeding/Contact Activity
Soybean leaves on agar in 24-well microtiter plates were sprayed with aqueous test solutions prepared from 10,000 ppm DMSO stock solutions. After drying the leaves were infested with N2 nymphs. The samples were assessed for mortality and growth inhibition in comparison to untreated samples 5 days after infestation.

[7] = system: Spodoptera littoralis (Egyptian Cotton Leaf Worm); assay: Spodoptera littoralis (Egyptian cotton leaf worm) feeding/contact activity; settings: foliar, 72 h, application rate 200 ppm, sprayed cotton leaf discs, L1 larvae, 3 days after infestation, read-out: control (mortality, anti-feeding effect, growth inhibition)
Protocol: Example B8: Spodoptera littoralis (Egyptian Cotton Leaf Worm) Feeding/Contact Activity
Cotton leaf discs were placed onto agar in 24-well microtiter plates and sprayed with aqueous test solutions prepared from 10,000 ppm DMSO stock solutions. After drying the leaf discs were infested with five L1 larvae. The samples were assessed for mortality, anti-feeding effect, and growth inhibition in comparison to untreated samples 3 days after infestation. Control of Spodoptera littoralis by a test sample is given when at least one of the categories mortality, anti-feedant effect, and growth inhibition is higher than the untreated sample.

[8] = system: Myzus persicae (Green Peach Aphid); assay: Myzus persicae (green peach aphid) feeding/contact activity, eggplant leaf discs; settings: foliar, 144 h, application rate 200 ppm, sprayed eggplant leaf discs, aphid population of mixed ages, 6 days after infestation, read-out: growth inhibition
Protocol: as §1, with “Example B6: Myzus persicae (Green Peach Aphid) Feeding/Contact Activity Eggplant” for “Sunflower”

[9] = system: Tetranychus urticae (Two-Spotted Spider Mite); assay: Tetranychus urticae (two-spotted spider mite) feeding/contact activity; settings: foliar, 192 h, application rate 200 ppm, sprayed bean leaf discs, mite population of mixed ages (mobile stages), 8 days after infestation
Protocol: Example B9: Tetranychus urticae (Two-Spotted Spider Mite): Feeding/Contact Activity
Bean leaf discs on agar in 24-well microtiter plates were sprayed with aqueous test solutions prepared from 10,000 ppm DMSO stock solutions. After drying the leaf discs were infested with a mite population of mixed ages. The samples were assessed for mortality on mixed population (mobile stages) 8 days after infestation.

Cc1c(OC[C@H](C)NS(=O)(=O)C(F)(F)F)cc(C(N)=O)c2c1CCC2 [P-1, 7-methyl-6-[(2S)-2-(trifluoromethylsulfonylamino)propoxy]indane-4-carboxamide]
mortality at 200 ppm [1]: ≥ 80%

CCN1OC[C@@H](NC(=O)c2cc(OC[C@H](C)NS(=O)(=O)C(F)(F)F)c(C)c3c2CCC3)C1=O [P-2, N-[(4R)-2-ethyl-3-oxo-isoxazolidin-4-yl]-7-methyl-6-[(2S)-2-(trifluoromethylsulfonylamino)propoxy]indane-4-carboxamide]
mortality at 200 ppm [1]: ≥ 80%

Cc1c(OC[C@H](C)NS(=O)(=O)C(F)(F)F)cc(C(=O)NC2CC2)c2c1CCC2 [P-3]
mortality at 200 ppm [1]: ≥ 80% | mortality at 200 ppm [2]: ≥ 80% | percent effect (mortality or growth inhibition) at 200 ppm [3]: ≥ 80% | percent effect (mortality or growth inhibition) at 200 ppm [4]: ≥ 80% | mortality at 12 ppm [5]: ≥ 80% | percent effect (mortality or growth inhibition) at 200 ppm [6]: ≥ 80%

COC(=O)C1(NC(=O)c2cc(OC[C@H](C)NS(=O)(=O)C(F)(F)F)c(C)c3c2CCC3)CC1 [P-4, methyl 1-[7-methyl-6-[(2S)-2-(trifluoromethylsulfonylamino)propoxy]indane-4-carbonyl]amino] cyclopropanecarboxylate]
mortality at 200 ppm [1]: ≥ 80% | percent effect (mortality or growth inhibition) at 200 ppm [3]: ≥ 80%

Cc1c(OC[C@H](C)NS(=O)(=O)C(F)(F)F)cc(C(=O)NC2(C(=O)O)CC2)c2c1CCC2 [P-5]
mortality at 200 ppm [1]: ≥ 80%

CO/N=C/NC(=O)c1cc(OC[C@H](C)NS(=O)(=O)C(F)(F)F)c(C)c2c1CCC2 [P-6, N-[(E)-methoxyiminomethyl]-7-methyl-6-[(2S)-2-(trifluoromethylsulfonylamino)propoxy]indane-4-carboxamide]
mortality at 200 ppm [1]: ≥ 80%

Cc1c(OC[C@H](C)NS(=O)(=O)C(F)(F)F)cc(C(=O)NC2(C#N)CC2)c2c1CCC2 [P-7, N-(1-cyanocyclopropyl)-7-methyl-6-[(2S)-2-(trifluoromethylsulfonylamino)propoxy]indane-4-carboxamide]
mortality at 200 ppm [1]: ≥ 80% | mortality at 200 ppm [2]: ≥ 80% | mortality at 12 ppm [5]: ≥ 80%

C[C@@H](COc1cc2c(c(C(=O)NC3(C#N)CC3)c1)CCCC2)NS(=O)(=O)C(F)(F)F [P-8, N-(1-cyanocyclopropyl)-7-[(2S)-2-(trifluoromethylsulfonylamino)propoxy]tetralin-5-carboxamide]
mortality at 200 ppm [1]: ≥ 80% | percent effect (mortality or growth inhibition) at 200 ppm [3]: ≥ 80% | mortality at 12 ppm [5]: ≥ 80%

C[C@@H](COc1cc2c(c(C(=O)NC3CC3)c1)CCCC2)NS(=O)(=O)C(F)(F)F [P-9, N-cyclopropyl-7-[(2S)-2-(trifluoromethylsulfonylamino)propoxy]tetralin-5-carboxamide]
mortality at 200 ppm [1]: ≥ 80% | percent effect (mortality or growth inhibition) at 200 ppm [3]: ≥ 80% | mortality at 12 ppm [5]: ≥ 80%

C[C@@H](COc1cc2c(c(C(=O)NC3(C#N)CCC3)c1)CCCC2)NS(=O)(=O)C(F)(F)F [P-11, N-(1-cyanocyclobutyl)-7-[(2S)-2-(trifluoromethylsulfonylamino)propoxy]tetralin-5-carboxamide]
mortality at 12 ppm [5]: ≥ 80%

C[C@@H](COc1cc2c(c(C(=O)NCC(F)(F)F)c1)CCCC2)NS(=O)(=O)C(F)(F)F [P-15, N-(2,2,2-trifluoroethyl)-7-[(2S)-2-(trifluoromethylsulfonylamino)propoxy]tetralin-5-carboxamide]
percent effect (mortality or growth inhibition) at 200 ppm [3]: ≥ 80%

C[C@@H](COc1cc2c(c(C(=O)Nc3ccc(F)cc3F)c1)CCCC2)NS(=O)(=O)C(F)(F)F [P-22, N-(2,4-difluorophenyl)-7-[(2S)-2-(trifluoromethylsulfonylamino)propoxy]tetralin-5-carboxamide]
mortality at 200 ppm [7]: ≥ 80%

C[C@@H](COc1cc2c(c(C(=O)NCc3ncccn3)c1)CCCC2)NS(=O)(=O)C(F)(F)F [P-23, N-(pyrimidin-2-ylmethyl)-7-[(2S)-2-(trifluoromethylsulfonylamino)propoxy]tetralin-5-carboxamide]
mortality at 200 ppm [2]: ≥ 80%

Cc1cc(F)ccc1NC(=O)c1cc(OC[C@H](C)NS(=O)(=O)C(F)(F)F)cc2c1CCCC2 [P-28, N-(4-fluoro-2-methyl-phenyl)-7-[(2S)-2-(trifluoromethylsulfonylamino)propoxy]tetralin-5-carboxamide]
percent effect (mortality or growth inhibition) at 200 ppm [3]: ≥ 80%

C[C@@H](COc1cc2c(c(C(N)=O)c1)CCCC2)NS(=O)(=O)C(F)(F)F [P-30, 7-[(2S)-2-(trifluoromethylsulfonylamino)propoxy]tetralin-5-carboxamide]
inhibition at 200 ppm [8]: ≥ 80%

C[C@@H](COc1cc2c(c(C(=O)NC34CC(C3)C4)c1)CCCC2)NS(=O)(=O)C(F)(F)F [P-32, N-(1-bicyclo[1.1.1]pentanyl)-7-[(2S)-2-(trifluoromethylsulfonylamino)propoxy]tetralin-5-carboxamide]
percent effect (mortality or growth inhibition) at 200 ppm [3]: ≥ 80% | mortality at 12 ppm [5]: ≥ 80%

C[C@@H](COc1cc2c(c(C(=O)NC3CC3)c1)CCC2)NS(=O)(=O)C(F)(F)F [P-33, N-cyclopropyl-6-[(2S)-2-(trifluoromethylsulfonylamino)propoxy]indane-4-carboxamide]
percent effect (mortality or growth inhibition) at 200 ppm [6]: ≥ 80% | inhibition at 200 ppm [8]: ≥ 80%

Cc1c(OC[C@H](C)NS(=O)(=O)C(Cl)Cl)cc(C(=O)NC2CC2)c2c1CCC2 [P-34, N-cyclopropyl-6-[(2S)-2-(dichloromethylsulfonylamino)propoxy]-7-methyl-indane-4-carboxamide]
mortality at 200 ppm [9]: ≥ 80%

Cc1c(OC[C@H](C)NS(=O)(=O)C(F)(F)F)cc(C(=O)NCC(F)(F)F)c2c1CCC2 [P-39, 7-methyl-N-(2,2,2-trifluoroethyl)-6-[(2S)-2-(trifluoromethylsulfonylamino)propoxy]indane-4-carboxamide]
percent effect (mortality or growth inhibition) at 200 ppm [3]: ≥ 80%

Cc1c(OC[C@H](C)NS(=O)(=O)C(F)(F)F)cc(C(=O)NC2CON(CC(F)(F)F)C2=O)c2c1CCC2 (stereo partly drawn) [P-40, 7-methyl-N-[3-oxo-2-(2,2,2-trifluoroethyl)isoxazolidin-4-yl]-6-[(2S)-2-(trifluoromethylsulfonylamino)propoxy]indane-4-carboxamide]
percent effect (mortality or growth inhibition) at 200 ppm [3]: ≥ 80% | mortality at 12 ppm [5]: ≥ 80%

Cc1c(OC[C@H](C)NS(=O)(=O)C(F)(F)F)cc(C(=O)NC23CC(C2)C3)c2c1CCC2 [P-41, N-(1-bicyclo[1.1.1]pentanyl)-7-methyl-6-[(2S)-2-(trifluoromethylsulfonylamino)propoxy]indane-4-carboxamide]
percent effect (mortality or growth inhibition) at 200 ppm [3]: ≥ 80% | mortality at 12 ppm [5]: ≥ 80%

Cc1cc(F)ccc1NC(=O)c1cc(OC[C@H](C)NS(=O)(=O)C(F)(F)F)c(C)c2c1CCC2 [P-42, N-(4-fluoro-2-methyl-phenyl)-7-methyl-6-[(2S)-2-(trifluoromethylsulfonylamino)propoxy]indane-4-carboxamide]
mortality at 12 ppm [5]: ≥ 80%
